What was measured:
hamster flank organ = experiment: Reduction of hair growth (hair mass) on hamster flank organ after topical application; assay type: in vivo, Golden Syrian hamster; details: for Percent Inhibition of Hair Growth: vs vehicle-treated organ
Excerpt: L-alanosine was mixed with separate portions of the foregoing vehicle to provide specimens containing 0.1, 0.5, 1, 2, and 6% by weight respectively of the inhibitor and the pH was adjusted to pH 7.5 with sodium hydroxide.
Four groups (eight animals in each group) of male intact Golden Syrian hamsters were provided. These animals were considered acceptable models for human beard hair growth in that they display oval shaped flank organs, one on each side, each about 8 mm. in major diameter, which grow thick black and coarse hair similar to human beard hair. These organs produce hair in response to androgens in the hamster. The flank organs of each hamster were depilated by applying a thioglycolat-- based chemical depilatory (Surgex), and to one organ of each animal was applied 10-25 μl. of vehicle alone once a day, while to the other organ of each animal was applied an equal amount of vehicle containing inhibitor. After three weeks of such applications (five days a week), the flank organs were shaved and the amount of recovered hair (hair mass) from each was weighed. The extent of reduction in hair growth by the inhibitor was expressed as the percent decrease in hair mass on the organ treated with inhibitor as compared to the organ treated with vehicle alone. As a control, one group of eight animals had both flank organs of each animal treated with vehicle alone.
A series of compositions was prepared containing various percentages by weight of N-phosphonacetyl-L-aspartic acid (PALA) in the vehicle described in Example 1 above adjusted to pH 4.5, and applied to hamster flank organs under the same conditions as described in Example 1. The reduction in hair growth observed after three weeks was as follows: […]

[1] = system: adenosine nucleotide contents of hair follicles; experiment: Adenosine nucleotide contents of flank organ hair follicles after topical treatment; assay type: in vivo, hamster; details: 10% in vehicle, three days of daily treatments
Method: The effect of the enzyme inhibition, was further shown by measurements of hair follicle nucleotide levels after topical treatment with L-alanosine. A group of eight hamsters was treated topically with L-alanosine (10% in the vehicle above) on one flank organ while the other organ received an equal amount of just the vehicle. After three days of daily treatments, the hair follicles from the flank organs were removed and the adenosine nucleotide contents were determined.

[2] = system: adenylosuccinate synthetase; experiment: Adenylosuccinate synthetase activity in hamster hair follicles after topical treatment; assay type: in vivo; details: 10% solution, twice over a 24 hour period
[3] = system: aspartate transcarbamylase; experiment: Aspartate transcarbamylase activity in hamster hair follicles after topical treatment; assay type: in vivo; details: 10% solution, two treatments over a 24 hour period
[4] = system: pyrimidine nucleotide content of hair follicles; experiment: Pyrimidine nucleotide content of hair follicles after topical treatment; assay type: in vivo, hamster; details: same treatment protocol as nucleotide content in Example 1 (10%, three days daily)
[5] = L-alanosine 0.5%, 25 μl, pH 7.5, three weeks
[6] = L-alanosine 1.0%, 25 μl, pH 7.5, three weeks
[7] = L-alanosine 2.0%, 25 μl, pH 7.5, three weeks
[8] = L-alanosine 6.0%, 25 μl, pH 7.5, three weeks
[9] = PALA 2%, 10 μl, pH 4.5, three weeks
[10] = PALA 2%, 25 μl, pH 4.5, three weeks
[11] = PALA 4%, 25 μl, pH 4.5, three weeks
[12] = PALA 6%, 10 μl, pH 4.5, three weeks
[13] = PALA 6%, 25 μl, pH 4.5, three weeks

**Q.** Which “Hamster Flank Organ Hair Mass, Treated Mean” value (“Hamster Flank Organ Hair Mass” for short) (hamster flank organ; L-alanosine 0.1%, 25 μl, pH 7.5, once a day, five days a week, three weeks) does the source give for `N[C@@H](CN(O)N=O)C(=O)O` [L-alanosine, L-2-amino-3-(N-hydroxy, N-nitrosamino) propionic acid] here?
**A.** 0.68 mg

**Q.** What about the “Percent Inhibition of Hair Growth” value (hamster flank organ; L-alanosine 0.1%, 25 μl, pH 7.5, three weeks) of the same compound?
**A.** 18%

**Q.** What about the “Hamster Flank Organ Hair Mass” value (hamster flank organ; [5]) of the same compound?
**A.** 0.67 mg

**Q.** And the “Percent Inhibition of Hair Growth” value (hamster flank organ; [5])?
**A.** 32%

**Q.** And the “Hamster Flank Organ Hair Mass” value (hamster flank organ; [6])?
**A.** 0.38 mg

**Q.** And the “Percent Inhibition of Hair Growth” value (hamster flank organ; [6])?
**A.** 47%

**Q.** And the “Hamster Flank Organ Hair Mass” value (hamster flank organ; [7])?
**A.** 0.51 mg

**Q.** What about the “Percent Inhibition of Hair Growth” value (hamster flank organ; [7]) of the same compound?
**A.** 61%

**Q.** And the “Hamster Flank Organ Hair Mass” value (hamster flank organ; [8])?
**A.** 0.07 mg

**Q.** And the “Percent Inhibition of Hair Growth” value (hamster flank organ; [8])?
**A.** 92%

**Q.** What about the “Nature of the hair on the treated organ” value (hamster flank organ; treated vs untreated organ, Table 1 footnote) of the same compound?
**A.** more vellous

**Q.** What about the “reduction in ADP levels in hair follicles” value [1] of the same compound?
**A.** 40%

**Q.** And the “reduction in AMP levels in hair follicles” value [1]?
**A.** 50%

**Q.** And the “reduction in ATP levels in hair follicles” value [1]?
**A.** 29%

**Q.** What about the “inhibition of adenylosuccinate synthetase activity” value [2] of the same compound?
**A.** about 49%

**Q.** `O=C(O)C[C@H](NC(=O)CP(=O)(O)O)C(=O)O` [PALA, N-phosphonacetyl-L-aspartic acid] was tested. Which “reduction of aspartate transcarbamylase activity” value [3] did it give?
**A.** 72%

**Q.** And the “Hamster Flank Organ Hair Mass” value (hamster flank organ; [9])?
**A.** 1.36 mg

**Q.** What about the “Percent Inhibition of Hair Growth” value (hamster flank organ; [9]) of the same compound?
**A.** 13%

**Q.** What about the “Hamster Flank Organ Hair Mass” value (hamster flank organ; [10]) of the same compound?
**A.** 1.34 mg

**Q.** What about the “Percent Inhibition of Hair Growth” value (hamster flank organ; [10]) of the same compound?
**A.** 19%

**Q.** And the “Hamster Flank Organ Hair Mass” value (hamster flank organ; [11])?
**A.** 0.85 mg

**Q.** And the “Percent Inhibition of Hair Growth” value (hamster flank organ; [11])?
**A.** 50%

**Q.** What about the “Hamster Flank Organ Hair Mass” value (hamster flank organ; [12]) of the same compound?
**A.** 0.37 mg

**Q.** And the “Percent Inhibition of Hair Growth” value (hamster flank organ; [12])?
**A.** 78%

**Q.** What about the “Hamster Flank Organ Hair Mass” value (hamster flank organ; [13]) of the same compound?
**A.** 0.23 mg

**Q.** What about the “Percent Inhibition of Hair Growth” value (hamster flank organ; [13]) of the same compound?
**A.** 87%

**Q.** What about the “inhibition of CDP (hair follicle content)” value [4] of the same compound?
**A.** 19%

**Q.** And the “inhibition of CTP (hair follicle content)” value [4]?
**A.** 60%

**Q.** What about the “inhibition of UDP (hair follicle content)” value [4] of the same compound?
**A.** 25%

**Q.** And the “inhibition of UTP (hair follicle content)” value [4]?
**A.** 50%
